# From the supplement of paper PMC4858399
# Tests used:
# [1] = system: Caenorhabditis elegans N2; assay: lowest effective concentration for larval growth inhibition (size below effect threshold); higher = less potent; conditions: exposure time 48 h
# Method in brief: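 Log-transformed well means of per-worm extinction, read as size on a Biosort, came from 50 C. elegans N2 L1 larvae per 96-well grown 48 h at 20°C in K-medium with killed bacteria, 1% DMSO and 0.5 to 200 µM chemical. The lowest effective concentration is the first dose at which the plate-adjusted mean size is below the threshold and stays below it at every higher dose. The threshold is 5.665.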
# [2] = system: Caenorhabditis elegans N2; assay: mean nematode size ln(EXT) after 48 h, plate-adjusted (DMSO control set to 6) (ln(EXT), control-adjusted); higher = larger nematodes / less growth inhibition; conditions: exposure time 48 h
# Method in brief: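 Synchronised C. elegans N2 L1 larvae were grown for 48 h at 20°C in K-medium containing killed OP50, 1% DMSO and 0.5–200 µM chemical, at 50 per well and 4–6 wells per treatment. The Biosort recorded extinction for each worm, and a growth model removed debris. Worm size was obtained by natural-logging these values and averaging them per well. For plate adjustment, the vehicle control mean was subtracted and 6 was added.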
Structure (SMILES),lowest effective concentration [1] [µM],mean nematode size ln(EXT) (ln) ([2]; 0.5 µM),mean nematode size ln(EXT) (ln) ([2]; 1 µM),mean nematode size ln(EXT) (ln) ([2]; 5 µM),mean nematode size ln(EXT) (ln) ([2]; 10 µM),mean nematode size ln(EXT) (ln) ([2]; 50 µM),mean nematode size ln(EXT) (ln) ([2]; 100 µM),mean nematode size ln(EXT) (ln) ([2]; 200 µM)
CN(C)CCCN(C)CCCN(C)C,> 200,5.82,5.85,5.88,5.85,5.81,5.89,5.96
COCc1nnc(-c2ccc[n+]([O-])c2)n1-c1c(Cl)c(Cl)cc2[nH]c(=O)c(=O)[nH]c12,> 200,5.89,6.15,6.22,6.24,6.17,6.08,5.67
CO[C@@H]1COCC[C@@H]1N[C@@H]1CC[C@@](C(=O)N2CCc3ncc(C(F)(F)F)cc3C2)(C(C)C)C1,> 200,5.89,5.88,5.95,5.95,5.93,5.86,5.84
COc1cc(-c2nc(NC(=O)c3cc4cc(C)cc(C)c4n3CC(=O)O)sc2CCC2CCCCC2)c(OC)cc1Cl,> 200,5.89,5.89,5.88,5.87,5.92,5.83,5.69
COc1ccc2sc(C(=O)Nc3nnn[nH]3)c(OC(C)C)c2c1,> 200,5.89,5.99,5.89,6.11,5.82,5.86,6.09
C[C@@H](Oc1ccc(CNC(=O)c2cccnc2Oc2ccc3c(c2)OCO3)c(F)c1)C(=O)O,> 200,5.79,5.84,5.86,5.84,5.92,5.86,5.72
Cc1nc(-c2ccccn2)ncc1C(=O)Nn1cc(C)c2cc(F)ccc21,> 200,5.82,5.84,5.9,5.83,5.73,5.77,5.86
Cc1nc(C)nc(N2C[C@@H](C)N(c3ccnc([C@@H](C)O)n3)[C@@H](C)C2)n1,> 200,5.83,5.77,5.75,5.69,5.71,5.7,5.85
Cc1ncc([C@@H](CCCCCCc2ccc3c(n2)NCCC3)CC(=O)O)cn1,> 200,5.81,5.79,5.84,5.84,5.8,5.87,5.86
N#C[C@@H]1CC(F)(F)CN1C(=O)CNC1CC2CCC(C1)N2c1ncccn1 (stereo not given in full),> 200,5.82,5.89,5.85,6,5.95,5.78,5.85
